Test results: patent US7576222B2, “Alkynyl-containing tryptophan derivative inhibitors of TACE/matrix metalloproteinase” (priority 2004, dated 2009)

molecular target: T1, catalytic domain of the recombinant TACE protein (Homo sapiens, UniProt P78536); assay: TACE FRET assay using TACE cat; type: biochemical; details: not given
T1 construct: The catalytic domain of the recombinant TACE protein was expressed and purified; made in house
Method: TACE FRET Assay Using TACE Cat
“K” is the IC50. Generally, “n” and “B” are floated, noting that n (Hill slope) should be close to 1 and B (background offset) to 0.
Pro-TNF-α substrate peptide Abz-[…]-Dpa (AnaSpec, San Jose, Calif., WARC-1) was prepared as a 2 mM stock solution in the TACE assay buffer (50 mM Tris-HCl, pH 7.4, 25 mM NaCl, 4% Glycerol, 0.005% Brij 35). The catalytic domain of the recombinant TACE protein was expressed and purified. The TACE protein (1 ug/ml) was pretreated with the inhibitors at various concentrations for 10 min. at room temperature. The reaction was initiated by the addition of the substrate peptide. […] The initial rate (slope) of the reaction was determined using a fluorescence plate reader (Molecular Devices, Spectra Max Gemini XS).

T1 sequence (P78536 223-474 limits assumed): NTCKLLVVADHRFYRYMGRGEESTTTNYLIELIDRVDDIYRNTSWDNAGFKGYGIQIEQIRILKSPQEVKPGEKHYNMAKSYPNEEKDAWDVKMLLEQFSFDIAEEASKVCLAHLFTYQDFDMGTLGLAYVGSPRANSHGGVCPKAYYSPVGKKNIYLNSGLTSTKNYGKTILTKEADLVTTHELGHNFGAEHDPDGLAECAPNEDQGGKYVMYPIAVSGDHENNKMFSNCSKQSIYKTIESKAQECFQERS

| SMILES | IC50 [nM] |
| --- | --- |
| CC#CCOc1ccc(S(=O)(=O)N[C@@H](Cc2c[nH]c3cc(F)ccc23)C(=O)O)cc1 [Example 7, N-{[4-(but-2-ynyloxy)phenyl]sulfonyl}-6-fluorotryptophan] | 2960 |
| CC#CCOc1ccc(S(=O)(=O)N[C@@H](Cc2c(C)n(Cc3ccc(C)cc3)c3ccc(OC)cc23)C(=O)O)cc1 [Example 188, N-{[4-(but-2-ynyloxy)phenyl]sulfonyl}-5-methoxy-2-methyl-1-(4-methylbenzyl)tryptophan] | 270 |
| CC#CCOc1ccc(S(=O)(=O)N[C@@H](Cc2cn(CC3CCC3)c3ccc(OC)cc23)C(=O)O)cc1 [Example 69, N-{[4-(but-2-ynyloxy)phenyl]sulfonyl}-1-(cyclobutylmethyl)-5-methoxytryptophan] | 1190 |
| CC#CCOc1ccc(S(=O)(=O)N[C@@H](Cc2c(C)n(Cc3ccc(OC)cc3)c3ccc(Cl)cc23)C(=O)O)cc1 [Example 91, N-{[4-(but-2-ynyloxy)phenyl]sulfonyl}-5-chloro-1-(4-methoxybenzyl)-2-methyltryptophan] | 190 |
| CC#CCOc1ccc(S(=O)(=O)N[C@@H](Cc2cn(CC(C)C)c3ccc(OC)cc23)C(=O)O)cc1 [Example 67, N-{[4-(but-2-ynyloxy)phenyl]sulfonyl}-1-isobutyl-5-methoxytryptophan] | 1230 |
| CC#CCOc1ccc(S(=O)(=O)N[C@@H](Cc2cn(Cc3cccc(C(F)(F)F)c3)c3ccc(OC)cc23)C(=O)O)cc1 [Example 56, N-{[4-(but-2-ynyloxy)phenyl]sulfonyl}-5-methoxy-1-[3-(trifluoromethyl)benzyl]tryptophan] | 2070 |
| CC#CCOc1ccc(S(=O)(=O)N[C@@H](Cc2c(C)n(Cc3cccc(F)c3)c3ccc(OC)cc23)C(=O)O)cc1 [Example 198, N-{[4-(but-2-ynyloxy)phenyl]sulfonyl}-1-(3-fluorobenzyl)-5-methoxy-2-methyltryptophan] | 340 |
| CC#CCOc1ccc(S(=O)(=O)N[C@@H](Cc2c(C)n(Cc3ccccc3)c3ccc(OC)cc23)C(=O)O)cc1 [Example 185, 1-benzyl-N-{[4-(but-2-ynyloxy)phenyl]sulfonyl}-5-methoxy-2-methyltryptophan] | 200 |
| CC#CCOc1ccc(S(=O)(=O)N[C@@H](Cc2c[nH]c3ccc(F)cc23)C(=O)O)cc1 [Example 3, N-{[4-(but-2-ynyloxy)phenyl]sulfonyl}-5-fluorotryptophan] | 1560 |
| CC#CCOc1ccc(S(=O)(=O)N[C@@H](Cc2c(C)n(Cc3ccccc3C(F)(F)F)c3ccc(OC)cc23)C(=O)O)cc1 [Example 193, N-{[4-(but-2-ynyloxy)phenyl]sulfonyl}-5-methoxy-2-methyl-1-[2-(trifluoromethyl)benzyl]tryptophan] | 450 |
| CC#CCOc1ccc(S(=O)(=O)N[C@@H](Cc2c(C)n(Cc3ccccc3C)c3ccc(OC)cc23)C(=O)O)cc1 [Example 186, N-{[4-(but-2-ynyloxy)phenyl]sulfonyl}-5-methoxy-2-methyl-1-(2-methylbenzyl)tryptophan] | 280 |

same assay, conditions: TACE FRET assay, catalytic domain of recombinant TACE; read-out: TACE IC50

| SMILES | IC50 [nM] |
| --- | --- |
| CC#CCOc1ccc(S(=O)(=O)N[C@@H](Cc2cn(Cc3ccc(OC)cc3)c3ccccc23)C(=O)O)cc1 [Example 19, N-{[4-(but-2-ynyloxy)phenyl]sulfonyl}-1-(4-methoxybenzyl)-L-tryptophan] | 1190 |
| CC#CCOc1ccc(S(=O)(=O)N[C@H](Cc2cn(Cc3ccc(C(F)(F)F)cc3)c3ccccc23)C(=O)O)cc1 [Example 41, N-{[4-(but-2-ynyloxy)phenyl]sulfonyl}-1-[4-(trifluoromethyl)benzyl]-D-tryptophan] | 4400 |
| CC#CCOc1ccc(S(=O)(=O)N[C@H](Cc2cn(Cc3ccccc3)c3ccccc23)C(=O)O)cc1 [Example 25, 1-benzyl-N-{[4-(but-2-ynyloxy)phenyl]sulfonyl}-D-tryptophan] | 2150 |

same assay, conditions: read-out: TACE Inhibition (%)

| SMILES | inhibition at 1 µM [%] |
| --- | --- |
| CC#CCOc1ccc(S(=O)(=O)N[C@@H](Cc2cn(Cc3cccc(C#N)c3)c3ccc(C(=O)O)cc23)C(=O)O)cc1 [Example 122, N-{[4-(but-2-ynyloxy)phenyl]sulfonyl}-5-carboxy-1-(3-cyanobenzyl)tryptophan] | -0.34 |
| CC#CCOc1ccc(S(=O)(=O)N[C@@H](Cc2c(C)n(Cc3ccccc3C#N)c3ccc(OC)cc23)C(=O)O)cc1 [Example 203, N-{[4-(but-2-ynyloxy)phenyl]sulfonyl}-1-(2-cyanobenzyl)-5-methoxy-2-methyltryptophan] | 56.8 |
| CC#CCOc1ccc(S(=O)(=O)N[C@@H](Cc2cn(Cc3ccc(F)cc3)c3ccc(C(=O)O)cc23)C(=O)O)cc1 [Example 117, N-{[4-(but-2-ynyloxy)phenyl]sulfonyl}-5-carboxy-1-(4-fluorobenzyl)tryptophan] | 10.9 |
| CC#CCOc1ccc(S(=O)(=O)N[C@@H](Cc2c(C)n(Cc3ccc(C#N)cc3)c3ccc(Cl)cc23)C(=O)O)cc1 [Example 98, N-{[4-(but-2-ynyloxy)phenyl]sulfonyl}-5-chloro-1-(4-cyanobenzyl)-2-methyltryptophan] | 61 |
| CC#CCOc1ccc(S(=O)(=O)N[C@@H](Cc2cn(Cc3cccc(OC)c3)c3ccc(C(=O)O)cc23)C(=O)O)cc1 [Example 108, N-{[4-(but-2-ynyloxy)phenyl]sulfonyl}-5-carboxy-1-(3-methoxybenzyl)tryptophan] | 9.93 |
| CC#CCOc1ccc(S(=O)(=O)N[C@@H](Cc2c(C)n(Cc3ccc(F)cc3)c3ccccc23)C(=O)O)cc1 [Example 154, N-{[4-(but-2-ynyloxy)phenyl]sulfonyl}-1-(4-fluorobenzyl)-2-methyltryptophan] | 52.7 |
| CC#CCOc1ccc(S(=O)(=O)N[C@@H](Cc2cn(Cc3cc(OC)cc(OC)c3)c3ccc(C(=O)O)cc23)C(=O)O)cc1 [Example 110, N-{[4-(but-2-ynyloxy)phenyl]sulfonyl}-5-carboxy-1-(3,5-dimethoxybenzyl)tryptophan] | 8.02 |
| CC#CCOc1ccc(S(=O)(=O)N[C@@H](Cc2cn(CC(C)C)c3ccc(C(=O)O)cc23)C(=O)O)cc1 [Example 129, N-{[4-(but-2-ynyloxy)phenyl]sulfonyl}-5-carboxy-1-isobutyltryptophan] | -4.96 |
| CC#CCOc1ccc(S(=O)(=O)N[C@@H](Cc2cn(Cc3ccccc3OC)c3ccc(OC)cc23)C(=O)O)cc1 [Example 51, N-{[4-(but-2-ynyloxy)phenyl]sulfonyl}-5-methoxy-1-(2-methoxybenzyl)tryptophan] | 38.3 |
| CC#CCOc1ccc(S(=O)(=O)N[C@@H](Cc2cn(Cc3cccnc3)c3ccc(C(=O)O)cc23)C(=O)O)cc1 [Example 125, N-{[4-(but-2-ynyloxy)phenyl]sulfonyl}-5-carboxy-1-(pyridin-3-ylmethyl)tryptophan] | 6.23 |
| CC#CCOc1ccc(S(=O)(=O)N[C@@H](Cc2c(C)n(Cc3ccccc3OC)c3ccc(Cl)cc23)C(=O)O)cc1 [Example 89, N-{[4-(but-2-ynyloxy)phenyl]sulfonyl}-5-chloro-1-(2-methoxybenzyl)-2-methyltryptophan] | 53.6 |
| CC#CCOc1ccc(S(=O)(=O)N[C@@H](Cc2c(C)n(Cc3ccccc3OC)c3ccc(OC)cc23)C(=O)O)cc1 [Example 189, N-{[4-(but-2-ynyloxy)phenyl]sulfonyl}-5-methoxy-1-(2-methoxybenzyl)-2-methyltryptophan] | 75.6 |
| CC#CCOc1ccc(S(=O)(=O)N[C@@H](Cc2cn(Cc3ccc(C(C)C)cc3)c3ccc(OC)cc23)C(=O)O)cc1 [Example 63, N-{[4-(but-2-ynyloxy)phenyl]sulfonyl}-1-(4-isopropylbenzyl)-5-methoxytryptophan] | 28.2 |
| CC#CCOc1ccc(S(=O)(=O)N[C@@H](Cc2cn(CC3CCCCC3)c3ccc(Cl)cc23)C(=O)O)cc1 [Example 87, N-{[4-(but-2-ynyloxy)phenyl]sulfonyl}-5-chloro-1-(cyclohexylmethyl)tryptophan] | 37.4 |
| CC#CCOc1ccc(S(=O)(=O)N[C@@H](Cc2c(C)n(Cc3ccc(OC(F)(F)F)cc3)c3ccc(OC)cc23)C(=O)O)cc1 [Example 196, N-{[4-(but-2-ynyloxy)phenyl]sulfonyl}-5-methoxy-2-methyl-1-[4-(trifluoromethoxy)benzyl]tryptophan] | 72.8 |
| CC#CCOc1ccc(S(=O)(=O)N[C@@H](Cc2c(C)n(Cc3ccccc3F)c3ccccc23)C(=O)O)cc1 [Example 152, N-{[4-(but-2-ynyloxy)phenyl]sulfonyl}-1-(2-fluorobenzyl)-2-methyltryptophan] | 51.7 |
| CC#CCOc1ccc(S(=O)(=O)N[C@@H](Cc2c(C)n(Cc3ccc(F)cc3)c3ccc(Cl)cc23)C(=O)O)cc1 [Example 95, N-{[4-(but-2-ynyloxy)phenyl]sulfonyl}-5-chloro-1-(4-fluorobenzyl)-2-methyltryptophan] | 63.6 |
| CC#CCOc1ccc(S(=O)(=O)N[C@@H](Cc2cn(Cc3ccc(OC(F)(F)F)cc3)c3ccc(C#N)cc23)C(=O)O)cc1 [Example 140, N-{[4-(but-2-ynyloxy)phenyl]sulfonyl}-5-cyano-1-[4-(trifluoromethoxy)benzyl]tryptophan] | 16 |
| CC#CCOc1ccc(S(=O)(=O)N[C@@H](Cc2cn(Cc3ccc(Cl)cc3)c3ccc(Cl)cc23)C(=O)O)cc1 [Example 81, N-{[4-(but-2-ynyloxy)phenyl]sulfonyl}-5-chloro-1-(4-chlorobenzyl)tryptophan] | 13.9 |
| CC#CCOc1ccc(S(=O)(=O)N[C@@H](Cc2cn(Cc3ccc(C(F)(F)F)cc3)c3ccc(Cl)cc23)C(=O)O)cc1 [Example 77, N-{[4-(but-2-ynyloxy)phenyl]sulfonyl}-5-chloro-1-[4-(trifluoromethyl)benzyl]tryptophan] | 29.8 |
